Where a name gives a salt, the structure may show the parent alone.
target: T1, HiBiT tagged PARP14 (Homo sapiens, UniProt Q460N5); assay: HiBiT assay for the degradation of PARP14 (HiBiT tagged PARP14 in LgBiT expressing Jurkat cells, 2 or 24 hours); assay type: cell-based; settings: Assay B (Example B): HiBiT tagged PARP14 degradation in LgBiT expressing Jurkat cells, read-out: DC50
T1 construct: engineered to contain a HiBiT tag on both alleles of the PARP14 gene; endogenous in cells; host or cells: Jurkat cells stably transfected with LgBiT (Promega), PARP14 locus edited by CRISPR/Cas9
Method in brief: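 Luminescence from HiBiT–LgBiT complementation served as proxy for endogenous PARP14 level in edited LgBiT Jurkat cells (5,000/well). After 2 or 24 h compound exposure at 37 °C, signal read with Live Cell Substrate, expressed as % of 0.1% DMSO control, and fitted (4-parameter, free Hill) for DC50.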

T1 sequence (Q460N5 whole entry): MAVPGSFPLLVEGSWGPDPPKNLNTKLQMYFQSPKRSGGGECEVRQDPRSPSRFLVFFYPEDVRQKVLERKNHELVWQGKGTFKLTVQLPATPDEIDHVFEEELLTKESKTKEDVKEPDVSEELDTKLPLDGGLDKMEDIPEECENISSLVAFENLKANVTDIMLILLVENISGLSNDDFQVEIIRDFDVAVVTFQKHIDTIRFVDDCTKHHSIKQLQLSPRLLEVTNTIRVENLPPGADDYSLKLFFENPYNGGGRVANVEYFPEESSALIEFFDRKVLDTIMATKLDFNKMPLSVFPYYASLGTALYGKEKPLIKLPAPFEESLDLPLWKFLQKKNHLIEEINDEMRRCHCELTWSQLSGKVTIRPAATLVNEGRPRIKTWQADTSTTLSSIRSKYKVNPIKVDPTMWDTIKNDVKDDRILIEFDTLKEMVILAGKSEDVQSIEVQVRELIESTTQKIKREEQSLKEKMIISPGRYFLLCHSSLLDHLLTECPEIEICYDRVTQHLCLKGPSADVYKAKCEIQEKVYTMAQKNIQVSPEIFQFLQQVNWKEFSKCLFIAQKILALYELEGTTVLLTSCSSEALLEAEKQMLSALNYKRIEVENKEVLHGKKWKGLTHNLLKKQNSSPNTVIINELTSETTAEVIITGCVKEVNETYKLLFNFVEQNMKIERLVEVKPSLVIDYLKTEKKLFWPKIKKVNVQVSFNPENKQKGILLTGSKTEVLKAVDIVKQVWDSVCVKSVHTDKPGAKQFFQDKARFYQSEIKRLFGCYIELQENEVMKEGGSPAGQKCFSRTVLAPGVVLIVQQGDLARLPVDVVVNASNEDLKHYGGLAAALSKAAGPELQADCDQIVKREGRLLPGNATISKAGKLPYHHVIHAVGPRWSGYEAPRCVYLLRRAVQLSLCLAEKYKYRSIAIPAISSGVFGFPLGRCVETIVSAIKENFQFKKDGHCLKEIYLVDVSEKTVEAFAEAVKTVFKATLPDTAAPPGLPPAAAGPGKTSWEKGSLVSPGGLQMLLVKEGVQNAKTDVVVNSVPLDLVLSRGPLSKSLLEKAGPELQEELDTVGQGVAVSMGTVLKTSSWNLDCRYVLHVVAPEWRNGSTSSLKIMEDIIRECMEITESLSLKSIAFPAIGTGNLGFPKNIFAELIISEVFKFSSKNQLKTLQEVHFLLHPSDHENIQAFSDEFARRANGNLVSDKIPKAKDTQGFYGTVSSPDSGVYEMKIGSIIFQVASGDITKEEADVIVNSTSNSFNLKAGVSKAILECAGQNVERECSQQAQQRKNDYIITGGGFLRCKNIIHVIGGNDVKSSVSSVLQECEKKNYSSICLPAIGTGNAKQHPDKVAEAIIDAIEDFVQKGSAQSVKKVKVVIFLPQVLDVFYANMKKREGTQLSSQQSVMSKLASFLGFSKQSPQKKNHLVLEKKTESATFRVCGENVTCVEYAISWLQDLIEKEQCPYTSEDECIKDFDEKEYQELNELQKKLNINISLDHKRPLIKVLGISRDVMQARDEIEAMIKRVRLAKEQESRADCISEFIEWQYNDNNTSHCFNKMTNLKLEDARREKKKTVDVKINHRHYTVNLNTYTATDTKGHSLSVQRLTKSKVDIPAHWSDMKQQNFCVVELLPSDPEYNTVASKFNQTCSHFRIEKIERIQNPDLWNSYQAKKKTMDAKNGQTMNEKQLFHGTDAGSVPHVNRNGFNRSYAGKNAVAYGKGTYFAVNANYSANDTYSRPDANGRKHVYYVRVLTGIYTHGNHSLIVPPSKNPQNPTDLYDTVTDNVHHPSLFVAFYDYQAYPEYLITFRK

DC50, < 30 nM:
O=C1CCC(Nc2ccc(N3CCC(N4CC(N5CCC(COc6ccc7c(=O)[nH]c(CSC8CCOCC8)nc7c6)CC5)C4)CC3)c(F)c2)C(=O)N1 (stereo not drawn) [Example 233, 3-((3-fluoro-4-(4-(3-(4-(((4-oxo-2-(((tetrahydro-2H-pyran-4-yl)thio)methyl)-3,4-dihydroquinazolin-7-yl)oxy)methyl)piperidin-1-yl)azetidin-1-yl)piperidin-1-yl)phenyl)amino)piperidine-2,6-dione]
Cn1nc(N2CCC(=O)NC2=O)c2cc(F)c(N3CCC(N4CCC(COc5cc(F)c6c(=O)[nH]c(CSC7CCOCC7)nc6c5)CC4)CC3)cc21 [Example 163, 1-(5-fluoro-6-(4-(((5-fluoro-4-oxo-2-(((tetrahydro-2H-pyran-4-yl)thio)methyl)-3,4-dihydroquinazolin-7-yl)oxy)methyl)-[1,4′-bipiperidin]-1′-yl)-1-methyl-1H-indazol-3-yl)dihydropyrimidine-2,4(1H,3H)-dione]
O=C1CCC(Nc2ccc(N3CCN(CC4CCN(CCOc5cc(F)c6c(=O)[nH]c(CSC7CCOCC7)nc6c5)CC4)CC3)c(F)c2)C(=O)N1 (stereo not drawn) [Example 213, 3-((3-fluoro-4-(4-((1-(2-((5-fluoro-4-oxo-2-(((tetrahydro-2H-pyran-4-yl)thio)methyl)-3,4-dihydroquinazolin-7-yl)oxy)ethyl)piperidin-4-yl)methyl)piperazin-1-yl)phenyl)amino)piperidine-2,6-dione]
O=C1CCC(Nc2ccc(N3CCC(N4CCC(COc5cc(F)c6c(=O)[nH]c(COC7CCOCC7)nc6c5)CC4)CC3)c(F)c2)C(=O)N1 (stereo not drawn) [Example 135, 3-((3-fluoro-4-(4-(((5-fluoro-4-oxo-2-(((tetrahydro-2H-pyran-4-yl)oxy)methyl)-3,4-dihydroquinazolin-7-yl)oxy)methyl)-[1,4′-bipiperidin]-1′-yl)phenyl)amino)piperidine-2,6-dione formate]
O=C1CCC(Nc2ccc(NC(=O)[C@H]3CCN(CCN4CCC(COc5cc(F)c6c(=O)[nH]c(COC7CCOCC7)nc6c5)CC4)C3)c(F)c2)C(=O)N1 (stereo partly drawn) [Example 199, (3S)-N-(4-((2,6-dioxopiperidin-3-yl)amino)-2-fluorophenyl)-1-(2-(4-(((5-fluoro-4-oxo-2-(((tetrahydro-2H-pyran-4-yl)oxy)methyl)-3,4-dihydroquinazolin-7-yl)oxy)methyl)piperidin-1-yl)ethyl)pyrrolidine-3-carboxamide]
O=C1CCC(Nc2ccc(N3CCC(N4CCC(COc5cc(F)c6c(=O)[nH]c(CSC7CCOCC7)nc6c5)CC4)CC3)cc2)C(=O)N1 (stereo not drawn) [Example 112, 3-((4-(4-(((5-fluoro-4-oxo-2-(((tetrahydro-2H-pyran-4-yl)thio)methyl)-3,4-dihydroquinazolin-7-yl)oxy)methyl)-[1,4′-bipiperidin]-1′-yl)phenyl)amino)piperidine-2,6-dione]
O=C1CCC(Nc2ccc(N3CCN(CCN4CCC(COc5cc(F)c6c(=O)[nH]c(CC7CC7)nc6c5)CC4)CC3)c(F)c2)C(=O)N1 (stereo not drawn) [Example 105, 3-((4-(4-(2-(4-(((2-(cyclopropylmethyl)-5-fluoro-4-oxo-3,4-dihydroquinazolin-7-yl)oxy)methyl)piperidin-1-yl)ethyl)piperazin-1-yl)-3-fluorophenyl)amino)piperidine-2,6-dione formate]
O=C1CCC(Nc2ccc(N3CCC(N4CC(N5CCC(COc6cc(F)c7c(=O)[nH]c(CSC8CCOCC8)nc7c6)CC5)C4)CC3)c(F)c2)C(=O)N1 (single isomer, unassigned) [Example 116b, 3-((3-fluoro-4-(4-(3-(4-(((5-fluoro-4-oxo-2-(((tetrahydro-2H-pyran-4-yl)thio)methyl)-3,4-dihydroquinazolin-7-yl)oxy)methyl)piperidin-1-yl)azetidin-1-yl)piperidin-1-yl)phenyl)amino)piperidine-2,6-dione]
O=C1CCC(Nc2ccc(-c3ccc(CCN4CCC(COc5cc(F)c6c(=O)[nH]c(CSC7CCOCC7)nc6c5)CC4)cn3)cc2)C(=O)N1 (stereo not drawn) [Example 132]
O=C1CCC(N2C(=O)c3cccc4c(N5CCN(CCN6CCC(COc7cc(F)c8c(=O)[nH]c(CSC9CCOCC9)nc8c7)CC6)CC5)ccc2c34)C(=O)N1 (stereo not drawn) [Example 103, 3-(6-(4-(2-(4-(((5-fluoro-4-oxo-2-(((tetrahydro-2H-pyran-4-yl)thio)methyl)-3,4-dihydroquinazolin-7-yl)oxy)methyl)piperidin-1-yl)ethyl)piperazin-1-yl)-2-oxobenzo[cd]indol-1(2H)-yl)piperidine-2,6-dione]
O=C1CCC(Nc2ccc(N3CCC(N4CC(N5CCC(COc6cc(F)c7c(=O)[nH]c(CSC8CCCCC8)nc7c6)CC5)C4)CC3)c(F)c2)C(=O)N1 (stereo not drawn) [Example 237, 3-({4-[4-(3-{4-[({2-[(cyclohexylsulfanyl)methyl]-5-fluoro-4-oxo-3H-quinazolin-7-yl}oxy)methyl]piperidin-1-yl}azetidin-1-yl)piperidin-1-yl]-3-fluorophenyl}amino)piperidine-2,6-dione formate]
CN(c1ccc(NC2CCC(=O)NC2=O)cc1F)C1CC(CN2CCC(COc3cc(F)c4c(=O)[nH]c(CSC5CCOCC5)nc4c3)CC2)C1 (stereo not drawn) [Example 147, 3-((3-fluoro-4-((3-((4-(((5-fluoro-4-oxo-2-(((tetrahydro-2H-pyran-4-yl)thio)methyl)-3,4-dihydroquinazolin-7-yl)oxy)methyl)piperidin-1-yl)methyl)cyclobutyl)(methyl)amino)phenyl)amino)piperidine-2,6-dione]
Cn1nc(N2CCC(=O)NC2=O)c2cc(F)c(N3CC(N4CCC(COc5cc(F)c6c(=O)[nH]c(CSC7CCOCC7)nc6c5)CC4)C3)cc21 [Example 185, 1-(5-fluoro-6-(3-(4-(((5-fluoro-4-oxo-2-(((tetrahydro-2H-pyran-4-yl)thio)methyl)-3,4-dihydroquinazolin-7-yl)oxy)methyl)piperidin-1-yl)azetidin-1-yl)-1-methyl-1H-indazol-3-yl)dihydropyrimidine-2,4(1H,3H)-dione]
Cn1nc(N2CCC(=O)NC2=O)c2cc(F)c(N3CCC(CN4CCC(COc5cc(F)c6c(=O)[nH]c(CSC7CCOCC7)nc6c5)CC4)CC3)cc21 [Example 182, 1-(5-fluoro-6-(4-((4-(((5-fluoro-4-oxo-2-(((tetrahydro-2H-pyran-4-yl)thio)methyl)-3,4-dihydroquinazolin-7-yl)oxy)methyl)piperidin-1-yl)methyl)piperidin-1-yl)-1-methyl-1H-indazol-3-yl)dihydropyrimidine-2,4(1H,3H)-dione]
O=C1CCC(Nc2ccc(N3CCC(N4CC(N5CCC(COc6cc(F)c7c(=O)[nH]c(CSC8CCOCC8)nc7c6)CC5)C4)CC3)c(F)c2)C(=O)N1 (single isomer, unassigned) [Example 116a, 3-((3-fluoro-4-(4-(3-(4-(((5-fluoro-4-oxo-2-(((tetrahydro-2H-pyran-4-yl)thio)methyl)-3,4-dihydroquinazolin-7-yl)oxy)methyl)piperidin-1-yl)azetidin-1-yl)piperidin-1-yl)phenyl)amino)piperidine-2,6-dione]
O=C1CCC(Nc2ccc(OC3CC(CN4CCC(COc5cc(F)c6c(=O)[nH]c(CCC7CCOCC7)nc6c5)CC4)C3)cc2)C(=O)N1 (stereo not drawn) [Example 110]
O=C1CCC(Nc2ccc(N3CCC(N4CCC(COc5cc(F)c6c(=O)[nH]c(CC7CC7)nc6c5)CC4)CC3)c(F)c2)C(=O)N1 (stereo not drawn) [Example 219, 3-((4-(4-(((2-(cyclopropylmethyl)-5-fluoro-4-oxo-3,4-dihydroquinazolin-7-yl)oxy)methyl)-[1,4′-bipiperidin]-1′-yl)-3-fluorophenyl)amino)piperidine-2,6-dione formate]
O=C1CCC(Nc2ccc(N3CC(N4CCC(CCOc5cc(F)c6c(=O)[nH]c(CSC7CCOCC7)nc6c5)CC4)C3)cc2)C(=O)N1 (stereo not drawn) [Example 127, 3-((4-(3-(4-(2-((5-fluoro-4-oxo-2-(((tetrahydro-2H-pyran-4-yl)thio)methyl)-3,4-dihydroquinazolin-7-yl)oxy)ethyl)piperidin-1-yl)azetidin-1-yl)phenyl)amino)piperidine-2,6-dione]
O=C1CCC(Nc2ccc(N3CCC(N4CC(N5CCC(COc6cc(F)c7c(=O)[nH]c(COC8CCOCC8)nc7c6)CC5)C4)CC3)c(F)c2)C(=O)N1 (single isomer, unassigned) [Example 136b, 3-((3-fluoro-4-(4-(3-(4-(((5-fluoro-4-oxo-2-(((tetrahydro-2H-pyran-4-yl)oxy)methyl)-3,4-dihydroquinazolin-7-yl)oxy)methyl)piperidin-1-yl)azetidin-1-yl)piperidin-1-yl)phenyl)amino)piperidine-2,6-dione]
O=C1CCC(Nc2ccc(N3CCN(CCN4CCC(COc5ccc6c(=O)[nH]c(CSC7CCOCC7)nc6c5)CC4)CC3)c(F)c2)C(=O)N1 (stereo not drawn) [Example 206, 3-((3-fluoro-4-(4-(2-(4-(((4-oxo-2-(((tetrahydro-2H-pyran-4-yl)thio)methyl)-3,4-dihydroquinazolin-7-yl)oxy)methyl)piperidin-1-yl)ethyl)piperazin-1-yl)phenyl)amino)piperidine-2,6-dione]
Cn1nc(C2CCC(=O)NC2=O)c2ccc(N3CCC(N4CC(N5CCC(COc6cc(F)c7c(=O)[nH]c(CSC8CCOCC8)nc7c6)CC5)C4)CC3)cc21 (stereo not drawn) [Example 156, 3-(6-(4-(3-(4-(((5-fluoro-4-oxo-2-(((tetrahydro-2H-pyran-4-yl)thio)methyl)-3,4-dihydroquinazolin-7-yl)oxy)methyl)piperidin-1-yl)azetidin-1-yl)piperidin-1-yl)-1-methyl-1H-indazol-3-yl)piperidine-2,6-dione]

Reference: patent US20240101540A1, “TARGETED PROTEIN DEGRADATION OF PARP14 FOR USE IN THERAPY” (Ribon Therapeutics, Inc., priority 2022, published 2024)
